Assay results from patent US9938562B2, “Naphthalene derived chromogenic enzyme substrates” (Glycosynth Limited, priority 2013, dated 2018).
Where two headings read alike, the source gives them in different places.

Columns and labels:
[1] = system: β-D-glucuronidase-positive strains; test: Hydrolysis by glucuronidase-positive strains; type: cell-based
[2] = system: clinical isolates of E. coli; test: Glucuronide sensitivity screen, agar plates (CPS ID 3 or Columbia agar); type: cell-based
E. cloacae = test: Glucuronide screen, agar plates (CPS ID 3 or Columbia agar); type: cell-based
E. faecium NCTC 7171 = test: as above; type: cell-based; conditions: E. faecium NCTC 7171, agar
E. faecalis NCTC 775 = test: as above; type: cell-based; conditions: E. faecalis NCTC 775, agar
[3] = system: Staphylococcus epidermidis NCTC 11047; test: Agar plate multi-point inoculation, colour; type: cell-based
[4] = system: Enterococcus faecalis NCTC 775; test: Agar plate multi-point inoculation, colour; type: cell-based
[5] = system: Klebsiella pneumoniae NCTC 9528; test: Agar plate multi-point inoculation, colour; type: cell-based
[6] = system: Burkholderia cepacia NCTC 10931; test: Agar plate multi-point inoculation, colour; type: cell-based; conditions: Columbia agar, FAC 500 mg/L, substrate 300 mg/L, 37° C. 18 h in air
range of microorganisms = test: Agar plate evaluation with a range of microorganisms (hue, diffusion, background); type: cell-based; conditions: agar plates with FAC
[7] = system: Salmonella typhimurium NCTC 74; test: Agar plate multi-point inoculation, colour; type: cell-based
[8] = system: Bacillus subtilis NCTC 9372; test: Agar plate multi-point inoculation, colour; type: cell-based
[9] = system: Candida albicans ATCC 90028; type: cell-based
[10] = system: Enterococcus faecium NCTC 7171; test: Agar plate multi-point inoculation, colour; type: cell-based
[11] = system: Escherichia coli NCTC 10418; test: Agar plate multi-point inoculation, colour; type: cell-based
[12] = system: Candida glabrata NCPF 3943; test: Agar plate multi-point inoculation, colour; type: cell-based
[13] = system: Staphylococcus aureus NCTC 6571; test: Agar plate multi-point inoculation, colour; type: cell-based
[14] = system: Staphylococcus aureus (MRSA) NCTC 11939; test: Agar plate multi-point inoculation, colour; type: cell-based; conditions: Columbia agar, FAC 500 mg/L, substrate 300 mg/L, 37° C. 18 h in air
[15] = system: Serratia marcescens NCTC 10211; test: Agar plate multi-point inoculation, colour; type: cell-based
[16] = system: Yersinia enterocolitica NCTC 11176; test: Agar plate multi-point inoculation, colour; type: cell-based; conditions: Columbia agar, FAC 500 mg/L, substrate 300 mg/L, 37° C. 18 h in air
[17] = system: Listeria monocytogenes NCTC 11994; test: Agar plate multi-point inoculation, colour; type: cell-based
[18] = system: Providencia rettgeri NCTC 7475; test: Agar plate multi-point inoculation, colour; type: cell-based
[19] = system: Acinetobacter baumannii NCTC 19606; test: Agar plate multi-point inoculation, colour; type: cell-based
[20] = system: Steptococcus pyogenes NCTC 8306; test: Agar plate multi-point inoculation, colour; type: cell-based
[21] = system: Pseudomonas aeruginosa NCTC 10662; test: Agar plate multi-point inoculation, colour; type: cell-based
[22] = system: Enterobacter cloacae NCTC 11936; test: Agar plate multi-point inoculation, colour; type: cell-based
[23] = 100 E. coli strains, agar, 18 h incubation

COC(=O)C1OC(Oc2cc3ccccc3cc2O)C(O)C(O)C1O [Compound 13, DHN-β-D-glucuronide-6′-methyl ester]
colour after hydrolysis compared with 12a or 12b [1]: weaker

NC1CCCCC1.O=C(O)[C@H]1O[C@@H](Oc2c[nH]c3ccc(Br)c(Cl)c23)[C@H](O)[C@@H](O)[C@@H]1O [X-β-D-glucuronide CHA salt]
% Sensitivity [2]: 79%
Colour [2]: −
Negative strains [2, 23]: 21
Positive strains [2, 23]: 79
Colour ([2]; E. coli 260262P, agar): Green
Colour ([2]; E. coli 260280Z, agar): Green
Colour ([2]; E. coli 260310H, agar): Green
Colour ([2]; E. coli 260313A, agar): −
Colour ([2]; E. coli 260316T, agar): −
Colour ([2]; E. coli 260327V, agar): Green
Colour ([2]; E. coli 260330Y, agar): Green
Colour ([2]; E. coli 260333P, agar): −
Colour ([2]; E. coli 260345F, agar): Green
Colour ([2]; E. coli 260348K, agar): Green
Colour ([2]; E. coli 260354W, agar): Green
Colour ([2]; E. coli 260364H, agar): −
Colour ([2]; E. coli 260370C, agar): Green
Colour ([2]; E. coli 260375E, agar): Green
Colour ([2]; E. coli 260390B, agar): −
Colour ([2]; E. coli 260396Z, agar): Green
Colour ([2]; E. coli 260398Q, agar): Green
Colour ([2]; E. coli 260399E, agar): Green
Colour ([2]; E. coli 260400N, agar): −
Colour ([2]; E. coli 260401Q, agar): Green
Colour ([2]; E. coli 260402H, agar): Green
Colour ([2]; E. coli 260404W, agar): Green
Colour ([2]; E. coli 260405P, agar): Green
Colour ([2]; E. coli 260406A, agar): −
Colour ([2]; E. coli 260406Y, agar): Green
Colour ([2]; E. coli 260407F, agar): Green
Colour ([2]; E. coli 260408C, agar): Green
Colour ([2]; E. coli 260411Z, agar): Green
Colour ([2]; E. coli 260412Q, agar): Green
Colour ([2]; E. coli 260414H, agar): Green
Colour ([2]; E. coli 260415Y, agar): Green
Colour ([2]; E. coli 260416W, agar): −
Colour ([2]; E. coli 260417P, agar): Green
Colour ([2]; E. coli 260422Y, agar): Green
Colour ([2]; E. coli 260424P, agar): Green
Colour ([2]; E. coli 260425A, agar): Green
Colour ([2]; E. coli 260426F, agar): Green
Colour ([2]; E. coli 260428T, agar): Green
Colour ([2]; E. coli 260431N, agar): Green
Colour ([2]; E. coli 260432E, agar): Green
Colour ([2]; E. coli 260433H, agar): Green
Colour ([2]; E. coli 260434Y, agar): Green
Colour ([2]; E. coli 260435W, agar): Green
Colour ([2]; E. coli 260436P, agar): Green
Colour ([2]; E. coli 260437A, agar): −
Colour ([2]; E. coli 260438F, agar): Green
Colour ([2]; E. coli 260439C, agar): Green
Colour ([2]; E. coli 260440S, agar): Green
Colour ([2]; E. coli 260441G, agar): Green
Colour ([2]; E. coli 260458Y, agar): Green
Colour ([2]; E. coli 260459W, agar): Green
Colour ([2]; E. coli 260463D, agar): Green
Colour ([2]; E. coli 260464G, agar): Green
Colour ([2]; E. coli 260471B, agar): −
Colour ([2]; E. coli 260478N, agar): −
Colour ([2]; E. coli 260479Q, agar): Green
Colour ([2]; E. coli 260480M, agar): Green
Colour ([2]; E. coli 260481J, agar): Green
Colour ([2]; E. coli 260483R, agar): −
Colour ([2]; E. coli 260485D, agar): Green
Colour ([2]; E. coli 260486L, agar): Green
Colour ([2]; E. coli 260492J, agar): Green
Colour ([2]; E. coli 260494B, agar): Green
Colour ([2]; E. coli 260495R, agar): −
Colour ([2]; E. coli 260497D, agar): Green
Colour ([2]; E. coli 260502G, agar): Green
Colour ([2]; E. coli 260503Z, agar): Green
Colour ([2]; E. coli 260504N, agar): Green
Colour ([2]; E. coli 260505Q, agar): −
Colour ([2]; E. coli 260506E, agar): Green
Colour ([2]; E. coli 260508Y, agar): Green
Colour ([2]; E. coli 260509W, agar): Green
Colour ([2]; E. coli 260510R, agar): Green
Colour ([2]; E. coli 260511X, agar): Green
Colour ([2]; E. coli 260514G, agar): −
Colour ([2]; E. coli 260515Z, agar): −
Colour ([2]; E. coli 260521S, agar): Green
Colour ([2]; E. coli 260522Z, agar): Green
Colour ([2]; E. coli 260532S, agar): Green
Colour ([2]; E. coli 260533G, agar): Green
Colour ([2]; E. coli 260536Q, agar): Green
Colour ([2]; E. coli 260537E, agar): −
Colour ([2]; E. coli 260538H, agar): −
Colour ([2]; E. coli 260539Y, agar): Green
Colour ([2]; E. coli 260541R, agar): Green
Colour ([2]; E. coli 260545G, agar): Green
Colour ([2]; E. coli 260547N, agar): Green
Colour ([2]; E. coli 260548Q, agar): Green
Colour ([2]; E. coli 260549E, agar): Green
Colour ([2]; E. coli 260553X, agar): −
Colour ([2]; E. coli 260554D, agar): Green
Colour ([2]; E. coli 260555L, agar): Green
Colour ([2]; E. coli 260563B, agar): Green
Colour ([2]; E. coli 260564R, agar): Green
Colour ([2]; E. coli 260578D, agar): −
Colour ([2]; E. coli 2603121P, agar): −
Colour (E. cloacae; E. cloacae 260329R, agar): −
Colour (E. cloacae; E. cloacae NCTC 11936, agar): −
Colour (E. faecium NCTC 7171): −
Colour (E. faecalis NCTC 775): −

DHN-6-sulfonic acid-β-D-galactopyranoside sodium salt [Compound 31]
Colour [3]: −
Colour [4]: −
Colour [5]: −
Colour [6]: −
colour (hue) after hydrolysis (range of microorganisms): purple to maroon colonies
Colour [7]: −
Colour [8]: −
Colour [9]: −
Colour [10]: −
Colour [11]: +
Colour [12]: −
Colour [13]: −
Colour [14]: −
Colour [15]: −
Colour [16]: −
Colour [17]: −
Colour [18]: +
Colour [19]: −
Colour [20]: −
Colour [21]: −
Colour [22]: +
amount dissolved in water: 30 mg
